Reference: patent publication US20150250911A1, “MALODOR COUNTERACTING COMPOSITIONS” (GIVAUDAN, S.A., priority 2012, published 2015)

How the values were obtained:
[1] = Sensory tests of compounds of formula (I) against 4 malodour compounds; parameters: species or system human; key: ++++: no malodour present/strong reduction in malodour; +++: medium reduction in malodour; ++: weak malodour reduction; +: no change from control; ◯: worse than control; conditions: reference malodour sample scored +
Description: (§1) Sensory studies were performed in 120 ml Beetson jar. The test compounds were prepared in DEP (=Diethylphtalate) and pipetted onto a desized woven cotton piece of cloth placed at the bottom of a jar. Where two or more compounds were tested in the same jar, they were applied to separate areas of the cotton cloth. Prior the first assessment and between assessments, the jars were incubated at room temperature for one hour so that the headspace did reach equilibrium.
The same procedures as described in Example 5 have been followed.
The compounds of formula (I) were assessed by the trained volunteers against 4 malodour compounds, namely isovaleric acid, dimethyl disulfide, 2-methyl-3-mercaptobutan-1-ol, and 3-hydroxy-3-methyl hexanoic acid.
For the sensory test, participants were given the reference malodour sample and were told that this scored+on a scale as indicated below. They were then asked to assess and score the test jars in the specified sequence, with a 20 second gap between jars. The jars were given to the assessors blind in random permutations, with each volunteer smelling all permutations in duplicate.
The following score scale was used:
++++: no malodour present/strong reduction in malodour +++: medium reduction in malodour ++: weak malodour reduction +: no change from control ◯: worse than control

[2] = Sensory study in jars: malodour score by trained volunteers, IVA malodour; parameters: species or system human; conditions: 0-5 scale (4 = no change from control); IVA (50 ul @ 0.06%) and 200 ul ORIVOL @0.1%
Description: as §1
(§2) Sensory studies were performed following the procedure described in Example 5. For the sensory test, participants were given a reference malodour sample (comprising the same ingredients as the jars with the maldodour) and were told that this scored 4 on a 0-5 scale. They were then asked to assess and score three test jars on a 0-5 scale in the specified sequence, with a 20 second gap between jars. The jars were given to the assessors blind in random permutations, with each volunteer smelling all three permutations in duplicate.
(§3) 0: no malodour present 1: strong reduction in malodour 2 medium reduction in malodour 3: weak malodour reduction 4: no change from control 5: worse than control
(§4) Approx. 20 trained volunteers did participate in each study twice.

[3] = Sensory study in jars: malodour score by trained volunteers, DMDS malodour; parameters: species or system human; conditions: for Malodour Score (arith. means): 0-5 scale (4 = no change from control)
Description: as §1
as §2, with “For” for “Sensory studies were performed following the procedure described in Example 5. For”, “the jar” for “the jars”, “the malodour)” for “the maldodour)”
as §3, §4

[4] = Sensory study in jars: malodour score by trained volunteers, MO malodour; parameters: species or system human
Description: as §1, §2, §3, §4

[5] = Sensory study in jars: malodour score by trained volunteers, HMHA malodour; parameters: species or system human; conditions: 0-5 scale (4 = no change from control); HMHA (50 ul @ 0.01%) and 200 ul ORIVOL @ 0.1%
Description: as §1, §2, §3, §4

Structure (SMILES): CC(CO)CC1CCC(C(C)C)CC1 (stereo not shown) [Compound 5.1]
- Sensory score [1]: ++++

Structure (SMILES): CC(C)C1CCCC(C(C)C(C)CO)C1 (stereo not shown) [Compound 5.2, 3-(3-isopropylcyclohexyl)-2-methylbutan-1-ol]
- Sensory score [1]: ++++

Structure (SMILES): CC(CO)CC1CCCC(C(C)(C)C)C1 (stereo not shown) [Compound 5.3, 3-(3-tert-butylcyclohexyl)-2-methylpropan-1-ol]
- Sensory score [1]: ++++

Structure (SMILES): CCC(C)(C)C1CCC(O)CC1 (stereo not shown) [Compound 5.4]
- Sensory score [1]: ++++

Structure (SMILES): OC1CCCCCCCCCCC1 [Compound 5.5]
- Sensory score [1]: +++

Structure (SMILES): CC(C)CC1CCC(CC(C)CO)CC1 (stereo not shown) [Compound 5.6, 3-(4-isobutylcyclohexyl)-2-methylpropan-1-ol]
- Sensory score [1]: +++

Structure (SMILES): OC1CCC(C2CCCCC2)CC1 (stereo not shown) [Compound 5.7]
- Sensory score [1]: +++

Structure (SMILES): OC1CCCCCCCCCC1 [Compound 5.9]
- Sensory score [1]: +++

Structure (SMILES): OC1CCCCCCCCCCCC1 [Compound 5.10]
- Sensory score [1]: ++++

Structure (SMILES): CC1(O)CCCCCCCCCCCC1 [Compound 5.11]
- Sensory score [1]: ++++

Structure (SMILES): OC1CCCCCCCCCCCCCC1 [Compound 5.12]
- Sensory score [1]: ++++

Structure (SMILES): CCC(C)(C)C1CCC(O)CC1 (stereo not shown) [ORIVOL, 4-(tert-pentyl)cyclohexanol]
- Malodour Score (arith. means) [2]: 2.733
- Malodour Score (arith. means) ([3]; DMDS 50 ul @ 0.5% and 200 ul ORIVOL @0.1%): 2.862
- Malodour Score (arith. means) ([3]; DMDS (50 ul @ 0.06%) and 200 ul ORIVOL): 0.91
- Malodour Score (arith. means) ([3]; DMDS (50 ul @ 0.5%) and 200 ul ORIVOL): 1.46
- reduction on malodour perceivable by the human nose compared to the malodour taken alone ([3]; DMDS, Table 1, even at very low concentrations): significant reduction
- Malodour Score (arith. means) ([4]; 0-5 scale (4 = no change from control), MO (50 ul @ 0.005%) and 200 ul ORIVOL @ 0.1%): 2.375
- reduction on malodour perceivable by the human nose compared to the malodour taken alone ([4]; MO, IVA and HMHA, Table 2): significant reduction
- Malodour Score (arith. means) [5]: 2.194
